Results reported in US8461328B2, “Tricyclic heterocyclic compounds, compositions and methods of use thereof” (Genentech, Inc., priority 2010, dated 2013).
Read-outs that look alike come from different tables or passages of the source.

Legend:
Format in all cases: biochemical
TYK2 = biological target: T1, TYK2 (Homo sapiens, UniProt P29597); experiment: TYK2 inhibition (Table 4)
T1 construct: made in house; host or cells: SF9 insect cells (baculovirus)
T1 sequence (P29597 873-1187): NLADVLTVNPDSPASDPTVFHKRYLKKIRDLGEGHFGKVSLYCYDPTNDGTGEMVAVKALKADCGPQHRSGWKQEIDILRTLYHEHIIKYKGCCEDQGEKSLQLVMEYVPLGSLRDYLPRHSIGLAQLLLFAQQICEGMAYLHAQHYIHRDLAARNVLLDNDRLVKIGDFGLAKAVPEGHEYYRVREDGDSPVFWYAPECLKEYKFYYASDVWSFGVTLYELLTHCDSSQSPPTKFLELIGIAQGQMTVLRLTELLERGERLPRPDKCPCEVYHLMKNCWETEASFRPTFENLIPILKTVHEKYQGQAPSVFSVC

JAK1 = biological target: T2, JAK1 (Homo sapiens, UniProt P23458); experiment: JAK1 inhibition (Table 4)
T2 construct: made in house; host or cells: SF9 insect cells (baculovirus)
T2 sequence (P23458 852-1154): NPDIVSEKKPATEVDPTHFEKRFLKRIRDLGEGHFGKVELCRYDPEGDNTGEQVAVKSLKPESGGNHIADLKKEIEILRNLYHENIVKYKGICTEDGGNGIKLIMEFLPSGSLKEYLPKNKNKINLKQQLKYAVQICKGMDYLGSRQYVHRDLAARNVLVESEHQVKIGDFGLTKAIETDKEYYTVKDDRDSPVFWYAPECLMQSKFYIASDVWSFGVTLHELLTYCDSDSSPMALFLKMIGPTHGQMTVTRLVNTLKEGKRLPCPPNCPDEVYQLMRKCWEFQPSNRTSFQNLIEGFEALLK

JAK2 = biological target: T3, JAK2 (Homo sapiens, UniProt O60674); experiment: JAK2 inhibition (Table 4); conditions: read-out: JAK2 Ki
T3 construct: made in house; host or cells: SF9 insect cells (baculovirus)
T3 sequence (O60674 812-1132): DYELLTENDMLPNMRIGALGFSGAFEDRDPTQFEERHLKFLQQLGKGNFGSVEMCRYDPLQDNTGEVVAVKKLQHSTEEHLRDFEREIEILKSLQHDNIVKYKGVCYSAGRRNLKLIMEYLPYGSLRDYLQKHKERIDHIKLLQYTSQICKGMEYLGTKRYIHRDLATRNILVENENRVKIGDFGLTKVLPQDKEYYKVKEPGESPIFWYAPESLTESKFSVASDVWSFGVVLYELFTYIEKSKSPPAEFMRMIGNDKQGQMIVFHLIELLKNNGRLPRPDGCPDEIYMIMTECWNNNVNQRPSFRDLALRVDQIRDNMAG

JAK3 = biological target: T4, JAK3 (Homo sapiens, UniProt P52333); experiment: JAK3 inhibition (Table 4)
T4 construct: made in house; host or cells: SF9 insect cells (baculovirus)
T4 sequence (P52333 783-1124): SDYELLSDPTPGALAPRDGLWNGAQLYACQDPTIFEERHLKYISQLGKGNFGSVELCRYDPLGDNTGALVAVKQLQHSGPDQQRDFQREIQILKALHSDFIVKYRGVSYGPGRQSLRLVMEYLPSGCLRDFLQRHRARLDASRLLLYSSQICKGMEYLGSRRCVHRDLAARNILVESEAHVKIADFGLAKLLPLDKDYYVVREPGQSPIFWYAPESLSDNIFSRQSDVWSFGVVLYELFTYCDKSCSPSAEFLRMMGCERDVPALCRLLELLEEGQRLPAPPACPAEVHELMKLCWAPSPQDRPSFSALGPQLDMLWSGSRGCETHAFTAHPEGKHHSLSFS

C[C@@H](O)c1nc2cnc3[nH]ccc3c2n1[C@H]1CC[C@H](NCC(F)(F)F)C1 [Example 1008, (R)-1-{1-[(1S,3S)-3-(2,2,2-Trifluoro-ethylamino)-cyclopentyl]-1,6-dihydro-1,3,5,6-tetraaza-as-indacen-2-yl}-ethanol]
Ki (TYK2): 7.93 nM
Ki (JAK1; read-out: JAK1 Ki): 1.72 nM
Ki (JAK2): 23.9 nM
Ki (JAK3; read-out: JAK3 Ki): 98 nM

CC(C)(C)OC(=O)N1CC(c2nc3cnc4[nH]ccc4c3n2C2CCN(Cc3ccccc3)CC2)C1 [Example 161, 3-[1-(1-Benzyl-piperidin-4-yl)-1,6-dihydro-1,2,3,5,6-tetraaza-as-indacen-2-yl]azetidine-1-carboxylic acid tert-butyl ester]
Ki (TYK2): 386 nM
Ki (JAK1; read-out: JAK1 Ki): 11.6 nM
Ki (JAK2): 31.8 nM
Ki (JAK3; read-out: JAK3 Ki): 20.5 nM

CN(C(=O)Cc1nc2cnc3[nH]ccc3c2n1C1CCN(CCC#N)CC1)C1CCCC1 [Example 263, 2-{1-[1-(2-Cyano-ethyl)-piperidin-4-yl]-1,6-dihydro-1,3,5,6-tetraaza-as-indacen-2-yl}-N-cyclopentyl-N-methyl-acetamide]
Ki (TYK2): 401 nM
Ki (JAK1; read-out: JAK1 Ki): 55.3 nM
Ki (JAK2): 152 nM
Ki (JAK3; read-out: JAK3 Ki): 19.1 nM

O=C(Cc1nc2cnc3[nH]ccc3c2n1C1CCCOC1)N1CC(F)(F)C1 (racemic) [Example 971, 1-(3,3-Difluoro-azetidin-1-yl)-2-[1-(tetrahydro-pyran-3-yl)-1,6-dihydro-1,3,5,6-tetraaza-as-indacen-2-yl]-ethanone]
Ki (TYK2): 799 nM
Ki (JAK1; read-out: JAK1 Ki): 114 nM
Ki (JAK2): 564 nM
Ki (JAK3; read-out: JAK3 Ki): 352 nM

N#CCCN1CCC(n2c(CCNC(=O)c3ccc(F)cc3)nc3cnc4[nH]ccc4c32)CC1 [Example 373, N-(2-{1-[1-(2-Cyano-ethyl)-piperidin-4-yl]-1,6-dihydro-1,3,5,6-tetraaza-as-indacen-2-yl}-ethyl)-4-fluoro-benzamide]
Ki (TYK2): 120 nM
Ki (JAK1; read-out: JAK1 Ki): 4.07 nM
Ki (JAK2): 27 nM
Ki (JAK3; read-out: JAK3 Ki): 52 nM

CN(C)CC(=O)N1CCC[C@@H](n2cnc3cnc4[nH]ccc4c32)C1 [Example 32, 2-Dimethylamino-1-[(R)-3-(6H-1,3,5,6-tetraaza-as-indacen-1-yl)-piperidin-1-yl]ethanone]
Ki (TYK2): 3180 nM
Ki (JAK1; read-out: JAK1 Ki): 181 nM
Ki (JAK2): 568 nM
Ki (JAK3; read-out: JAK3 Ki): 1820 nM

N#CCCN1CCC(n2c(COCC3CCC3)nc3cnc4[nH]ccc4c32)CC1 [Example 840, 3-[4-(2-Cyclobutylmethoxymethyl-6H-1,3,5,6-tetraaza-as-indacen-1-yl)-piperidin-1-yl]-propionitrile]
Ki (TYK2): 635 nM
Ki (JAK1; read-out: JAK1 Ki): 62.3 nM
Ki (JAK2): 102 nM
Ki (JAK3; read-out: JAK3 Ki): 104 nM

NC1CCCC(n2cnc3cnc4[nH]ccc4c32)C1 (single isomer, unassigned) [Example 368, 3-(6H-1,3,5,6-Tetraaza-as-indacen-1-yl)-cyclohexylamine]
Ki (TYK2): 130 nM
Ki (JAK1; read-out: JAK1 Ki): 27.8 nM
Ki (JAK2): 19.3 nM
Ki (JAK3; read-out: JAK3 Ki): 419 nM

Cc1nc2cnc3[nH]ccc3c2n1C1CCC(N2CCC(F)(F)CC2)CC1 (stereo not drawn) [Example 767, 1-[4-(4,4-Difluoro-piperidin-1-yl)-cyclohexyl]-2-methyl-1,6-dihydro-1,3,5,6-tetraaza-as-indacene]
Ki (TYK2): 36.9 nM
Ki (JAK1; read-out: JAK1 Ki): 2.81 nM
Ki (JAK2): 10.7 nM
Ki (JAK3; read-out: JAK3 Ki): 155 nM

N#CCCN1CCC(n2c(CNCC(F)(F)F)nc3cnc4[nH]ccc4c32)CC1 [Example 695, 3-(4-{2-[(2,2,2-Trifluoro-ethylamino)-methyl]-6H-1,2,3,5,6-tetraaza-as-indacen-1-yl}-piperidin-1-yl)-propionitrile]
Ki (TYK2): 483 nM
Ki (JAK1; read-out: JAK1 Ki): 28.4 nM
Ki (JAK2): 77.7 nM
Ki (JAK3; read-out: JAK3 Ki): 63.1 nM

N#CCC1CCC(n2c(CO)nc3cnc4[nH]ccc4c32)CC1 (mixture of isomers) [Example 643, [4-(2-Hydroxymethyl-6H-1,2,3,5,6-tetraaza-as-indacen-1-yl)-cyclohexyl]-acetonitrile]
Ki (TYK2): 0.51 nM
Ki (JAK1; JAK1 Ki): 0.27 nM
Ki (JAK2): 0.96 nM
Ki (JAK3; JAK3 Ki): 5.26 nM

O=C([C@H]1CC[C@H](n2cnc3cnc4[nH]ccc4c32)CC1)N1CCOCC1 [Example 166, Trans Morpholin-4-yl-[4-(6H-1,2,3,5,6-tetraaza-as-indacen-1-yl)-cyclohexyl]-methanone]
Ki (TYK2): 1020 nM
Ki (JAK1; read-out: JAK1 Ki): 145 nM
Ki (JAK2): 151 nM
Ki (JAK3; read-out: JAK3 Ki): 255 nM

O=C(Cc1nc2cnc3[nH]ccc3c2n1C1CCCOC1)N1CCSCC1 (racemic) [Example 985, 2-[1-(Tetrahydro-pyran-3-yl)-1,6-dihydro-1,3,5,6-tetraaza-as-indacen-2-yl]-1-thiomorpholin-4-yl-ethanone]
Ki (TYK2): 175 nM
Ki (JAK1; read-out: JAK1 Ki): 19.6 nM
Ki (JAK2): 366 nM
Ki (JAK3; read-out: JAK3 Ki): 146 nM

Cc1nc2cnc3[nH]ccc3c2n1[C@@H]1CC[C@@H](NC(C)CC#N)C1 (stereo partly drawn) [Example 725, 3-[(1R,3R)-3-(2-Methyl-6H-1,3,5,6-tetraaza-as-indacen-1-yl)-cyclopentylamino]-butyronitrile]
Ki (TYK2): 211 nM
Ki (JAK1; read-out: JAK1 Ki): 22.1 nM
Ki (JAK2): 49.5 nM
Ki (JAK3; read-out: JAK3 Ki): 32.5 nM

C[C@@H](O)c1nc2cnc3[nH]ccc3c2n1C1CCC(n2cncn2)CC1 (stereo partly drawn) [Example 779, (R)-1-[1-(4-[1,2,4]triazol-1-yl-cyclohexyl)-1,6-dihydro-1,3,5,6-tetraaza-as-indacen-2-yl]-ethanol]
Ki (TYK2): 39 nM
Ki (JAK1; read-out: JAK1 Ki): 4.87 nM
Ki (JAK2): 73.8 nM
Ki (JAK3; read-out: JAK3 Ki): 233 nM

C[C@@H](N)c1nc2cnc3[nH]ccc3c2n1C1CCCOC1 (single isomer, unassigned) [Example 669, 1-[1-(Tetrahydro-pyran-3-yl)-1,6-dihydro-1,2,3,5,6-tetraaza-as-indacen-2-yl]-ethylamine]
Ki (TYK2): 681 nM
Ki (JAK1; read-out: JAK1 Ki): 137 nM
Ki (JAK2): 913 nM
Ki (JAK3; read-out: JAK3 Ki): 823 nM

CS(=O)(=O)NCCc1nc2cnc3[nH]ccc3c2n1[C@H]1CCCOC1 [Example 854, (S)—N-{2-[1-(Tetrahydro-pyran-3-yl)-1,6-dihydro-1,3,5,6-tetraaza-as-indacen-2-yl]-ethyl}-methanesulfonamide]
Ki (TYK2): 138 nM
Ki (JAK1; read-out: JAK1 Ki): 4.01 nM
Ki (JAK2): 77.1 nM
Ki (JAK3; read-out: JAK3 Ki): 195 nM

C[C@@H](O)c1nc2cnc3[nH]ccc3c2n1C1CCC(n2ccnn2)CC1 (stereo partly drawn) [Example 1003, (R)-1-[1-(4-[1,2,3]Triazol-1-yl-cyclohexyl)-1,6-dihydro-1,3,5,6-tetraaza-as-indacen-2-yl]-ethanol]
Ki (TYK2): 38.2 nM
Ki (JAK1; read-out: JAK1 Ki): 5.16 nM
Ki (JAK2): 63.5 nM
Ki (JAK3; read-out: JAK3 Ki): 129 nM

C[C@@H](O)c1nc2cnc3[nH]ccc3c2n1[C@H]1CCN(S(C)(=O)=O)C1 [Example 930, (R)-1-[1-((S)-1-Methanesulfonyl-pyrrolidin-3-yl)-1,6-dihydro-1,3,5,6-tetraaza-as-indacen-2-yl]-ethanol]
Ki (TYK2): 347 nM
Ki (JAK1; read-out: JAK1 Ki): 87.2 nM
Ki (JAK2): 950 nM
Ki (JAK3; read-out: JAK3 Ki): 190 nM

OC1CCCC(n2cnc3cnc4[nH]ccc4c32)C1 (single isomer, unassigned) [Example 561, 3-(6H-1,3,5,6-Tetraaza-as-indacen-1-yl)-cyclohexanol]
Ki (TYK2): 24.5 nM
Ki (JAK1; read-out: JAK1 Ki): 7.29 nM
Ki (JAK2): 17.9 nM
Ki (JAK3; read-out: JAK3 Ki): 14.5 nM

O=S(=O)(c1ccccc1)N1CC[C@@H](n2cnc3cnc4[nH]ccc4c32)C1 [Example 432, 1-((R)-1-Benzenesulfonyl-pyrrolidin-3-yl)-1,6-dihydro-1,3,5,6-tetraaza-as-indacene]
Ki (TYK2): 73.2 nM
Ki (JAK1; read-out: JAK1 Ki): 19.7 nM
Ki (JAK2): 17.9 nM
Ki (JAK3; read-out: JAK3 Ki): 1280 nM

N#CCCN1CCC(n2c(CC(=O)N3CCC(F)(F)CC3)nc3cnc4[nH]ccc4c32)CC1 [Example 240, 3-(4-{2-[2-(4,4-Difloro-piperidin-1-yl)-2-oxo-ethyl]-6H-1,3,5,6-tetraaza-as-indacen-1-yl)-piperidin-1-yl]-propionitrile]
Ki (TYK2): 72.7 nM
Ki (JAK1; read-out: JAK1 Ki): 6.92 nM
Ki (JAK2): 56 nM
Ki (JAK3; read-out: JAK3 Ki): 7.35 nM

CC(C)N1CCC(n2cnc3cnc4[nH]ccc4c32)CC1 [Example 549, 1-(1-Isopropyl-piperidin-4-yl)-1,6-dihydro-1,3,5,6-tetraaza-as-indacene]
Ki (TYK2): 809 nM
Ki (JAK1; read-out: JAK1 Ki): 92.4 nM
Ki (JAK2): 182 nM
Ki (JAK3; read-out: JAK3 Ki): 3490 nM

CC(=O)N(C)CCc1nc2cnc3[nH]ccc3c2n1C1CCN(CCC#N)CC1 [Example 387, N-(2-{1-[1-(2-Cyano-ethyl)-piperidin-4-yl]-1,6-dihydro-1,3,5,6-tetraaza-as-indacen-2-yl}-ethyl)-N-methyl-acetamide]
Ki (TYK2): 350 nM
Ki (JAK1; read-out: JAK1 Ki): 15.4 nM
Ki (JAK2): 54.1 nM
Ki (JAK3; read-out: JAK3 Ki): 70.3 nM

CC1(n2cnc3cnc4[nH]ccc4c32)CCN(S(=O)(=O)c2cccnc2)CC1 [Example 753, 1-[4-Methyl-1-(pyridine-3-sulfonyl)-piperidin-4-yl]-1,6-dihydro-1,3,5,6-tetraaza-as-indacene]
Ki (TYK2): 289 nM
Ki (JAK1; read-out: JAK1 Ki): 18.4 nM
Ki (JAK2): 76.1 nM
Ki (JAK3; read-out: JAK3 Ki): 296 nM

COCC(=O)N1CCC(n2cnc3cnc4[nH]ccc4c32)CC1 [Example 192, 2-Methoxy-1-[4-(6H-1,2,3,5,6-tetraaza-as-indacen-1-yl)-piperidin-1-yl]-ethanone]
Ki (TYK2): 388 nM
Ki (JAK1; read-out: JAK1 Ki): 24.5 nM
Ki (JAK2): 51.3 nM
Ki (JAK3; read-out: JAK3 Ki): 401 nM

O=C(O)[C@H]1C[C@@H](n2cnc3cnc4[nH]ccc4c32)C1 [Example 484, 3-(6H-1,3,5,6-Tetraaza-as-indacen-1-yl)-cyclobutanecarboxylic acid]
Ki (TYK2): 1290 nM
Ki (JAK1; read-out: JAK1 Ki): 441 nM
Ki (JAK2): 181 nM
Ki (JAK3; read-out: JAK3 Ki): 323 nM
